Laboratory results taken from US4136165A, “Cosmetic preparations with alkoxybenzoic acid esters as inflammation inhibitors and method” (Henkel Kommanditgesellschaft auf Aktien, priority 1976, dated 1979).
Like-named read-outs stand apart in the source and are kept apart here.

Key:
[1] = Orientating test of toxicity; settings: in vivo
Method: The alkoxybenzoic acid esters, to be used in accordance with the present invention, were tested for their inflammation-inhibiting properties in the experiments described hereinafter. An orientating test of their toxicity was first carried out in order to be able to establish the test dosages for further experiments.

Dextran edema, rat's paw = test: Edema of the rat's paw test, dextran edema; assay type: in vivo; settings: 1000 mg/kg p.o. thirty minutes before dextran, measured thirty minutes after dextran injection
Method: The edema of the rat's paw test, as described by F. Kemper in "Arzneimittelforschung" 10 (1960), p. 777, was used as a test for assessing the compounds with respect to their suitability for inhibiting inflammation. In order to produce the edema, 0.1 ml of 6% dextran solution was injected to a depth of approximately 5 mm between the second and third toe of the right hind paw of the test animals. While only the dextran solution was administered to the control test animals, the various test substances were injected or administered per os to the test animals in the quantities given in Table I thirty minutes before the test animals were injected with the dextran solution. The volume of the paws was determined by means of the electrical volume measuring device described in detail by Kemper & Amelin in "Zeitschrift fur die gesamte experimentelle Medizin" 131 (1958), p. 407.
The measurements were taken thirty minutes after the dextran solution injection. For the purpose of comparison, the left untreated paw was in each case measured at the said times. The amount of the swelling in animals which had been treated with the test substance and in non-treated animals thirty minutes after the dextran injection were used to calculate the degree of the inhibiting of the edema as a percentage of the swelling which occurred in animals which had not received any test substance.

[2] = system: Carrageenin edema, rat's paw; test: Rat's paw test, carrageenin edema (amputation methodology); assay type: in vivo; settings: 1000 mg/kg p.o. one hour before initiating the inflammation, paws weighed three hours after carrageenin
Description: The so-called amputation methodology, described by C. H. Winter in Journal of Pharmaceutical and Experimental Therapeutics, Vol. 141 (1963), page 369, was used as a further rat's paw test. In this method, the test animals are killed three hours after injecting the substance causing the inflammation, and the weights of the paws are ascertained. The product used to cause inflammation in these tests is carrageenin. The inhibiting of the development of the edema of the rats' paws by the test substance, which was administered orally one hour before initiating the inflammation,serves as an indication of the efficacy and is expressed in percentages.

[3] = system: UV erythema in guinea pig; test: Ultraviolet erythema test in guinea pigs; assay type: in vivo; settings: 5% Tincture, mean of assessments six hours after radiation and the following morning
Method: Guinea pigs were subjected to the ultraviolet erythema test in a further experiment. For this purpose, the hair was removed from the backs of the test animals by shearing and treatment with a depilatory cream. The test animals were then exposed to radiation for eight minutes, and the marked test areas were then treated with the test solutions or salves. A second application was effected after thirty minutes, and a third and the following treatments were effected at intervals of sixty minutes. Six hours after having been exposed to radiation, the animals were washed, dried and visually assessed.
Assessment was repeated the following morning and the mean value for each substance was calculated from the two assessments. The two spots exposed to radiation directly behind the ears were chosen as reference points which had been exposed to radiation and which had not been treated. The intensity of the redness of these spots was equated with 0. Disappearance of the redness at the treated places was assessed by plus points up to +4 (no spots visible), and an intensification of the redness was assessed with minus points up to -4 (formation of blisters). The total of the assessments from the two evaluations, expressed in the ratio to the number of animals times 8 as the maximum attainable value (= 100%) gives the percentage inhibiting value of the substance. The inhibiting values ascertained in this manner are given in the following table under the heading "UR Erythema Guinea Pigs".

[4] = system: UV edema in hairless mouse; test: Ultraviolet test on hairless mice (UV edema, skin fold thickness); assay type: in vivo; settings: 5% in Vaseline, skin fold thickness after 30 hrs
Method: However, an ultraviolet test was carried out on hairless mice which also provide information concerning the efficacy of the substances for use as agents for treating sunburn. The backs of the hairless mice were exposed to radiation by an ultraviolet lamp for thirty minutes from a distance of 60 cm, thus causing a cutaneous inflammation. […] The dosage of the test substances was the same as in the rat's paw test. The degree of formation of edema was determined by measuring the skin fold thickness after thirty hours. The degree of the percentage inhibition of the erythema is given in the following Table I and was determined by comparing the change in the skin fold thickness, caused in treated test animals by exposure to radiation, with the change in the skin fold thickness in animals which, although exposed to radiation, had not been treated.

SMILES	LD50 ([1]; read-out: Orientating Toxicity)	Rat's Paw Test Dextran Edema Inhibition (Dextran edema, rat's paw)	Rat's Paw Test Carrageenin Edema Inhibition [2]	UV Erythema in Guinea Pig Inhibition [3]	UV Edema in Hairless Mouse Inhibition After 30 hrs [4]	Orientating Toxicity [1]	LD50 [1]
CCCOC(=O)c1ccc(OC)cc1 [Compound A, n-Propyl Anisate]	> 1000 mg/kg	25%	12%	60%	49%	–	–
COc1ccc(C(=O)OC(C)C)cc1 [Compound C, Isopropyl Anisate]	> 1000 mg/kg	20%	9%	40%	38%	–	–
COc1ccc(C(=O)OC(C)(C)C)cc1 [Compound E, Tert.-Butyl Anisate]	> 1000 mg/kg	11%	41%	43%	30%	–	–
COC(=O)c1ccc(OC)cc1 [Compound B, Methyl Anisate]	> 1000 mg/kg	28%	18%	31%	41%	–	–
COc1ccc(C(=O)OCC(C)(C)C)cc1 [Compound F, 2,2-Dimethyl-propyl Anisate]	–	15%	30%	48%	35%	22 1.0 gm/kg	–
COc1ccc(C(=O)OCc2ccccc2)cc1 [Compound G, Benzyl Anisate]	–	5%	19%	46%	31%	–	> 1000 mg/kg
CCCCOC(=O)c1ccc(OC)cc1 [Compound D, Butyl Anisate]	> 1000 mg/kg	9%	11%	51%	36%	–	–
